Test results published in patent US10852272B2, “Devices and methods using pore size modulation for detecting analytes in a fluid sample” (The Regents of the University of California, priority 2014, dated 2020).

Assays:
[1] = Dissolution (decrosslinking) kinetics of labile crosslinkers under the dissolution treatment (applied stimulus); type: physicochemical; details: under the dissolution treatment listed per crosslinker (periodic acid, reducing agent, base or acid)
Source text: Certain properties of labile crosslinkers are described in the table below.

[2] = Half-life of DK as a function of pH; type: physicochemical; details: buffer
Description: The half-life of DK was 0.03 days at pH 5 and 6 days at pH 7.4 (at 35° C.). To qualitatively confirm decrosslinking functionality, four solutions of tris glycine were titrated to pH values of 8.3, 7.1, 2.6 and 0.07, with the addition of hydrochloric acid. A piece of DK crosslinked PAG was placed into each of the separate solutions to assess dissolution at room temperature. Gels were periodically removed and photographs were taken to qualitatively assess how much gel remained. […] The gels soaking in 8.3 pH and 7.1 pH were not visually affected even after overnight incubation. […] Experiments were performed to study composite crosslinked PAG.

| SMILES | Dissolution Kinetics [1] | half-life ([2]; pH 5, 35° C.) | half-life ([2]; pH 7.4, 35° C.) |
| --- | --- | --- | --- |
| C=CC(=O)NCCSSCCNC(=O)C=C [BAC, N,N′-bis(acryloyl)cystamine] | Minutes | – | – |
| C=CCNC(=O)C(O)C(O)C(=O)NCC=C (centres unmarked) [DATD, N—N′-diallyltartardiamide] | Hours | – | – |
| C=CC(=O)NC(O)C(O)NC(=O)C=C (centres unmarked) [DHEBA, N,N′-(1,2-dihydroxyethylene)bisacrylamide] | Hours | – | – |
| C=CC(=O)NCCOC(C)(C)OCCNC(=O)C=C [DK, N-[2-[2-[2-(prop-2-enoylamino)ethoxy]propan-2-yloxy]ethyl]prop-2-enamide] | Minutes | 0.72 h | 144 h |
| C=CC(=O)NCCOCCOC(C)(C)OCCOCCNC(=O)C=C [DOK, N,N′-(7,7-dimethyl-3,6,8,11-tetraoxatridecane-1,13-diyl)diacrylamide] | Minutes | – | – |
| C=CC(=O)OCCOC(=O)C=C [EDA, ethylene glycol diacrylate] | Minutes | – | – |
